Assay results published in patent US10240255B2 (priority 2007, dated 2019).

Experiments:
[1] = tested on: endothelial cells and PBMC
[2] = tested on: BioMAP® systems (primary human cells); format: cell-based

Question: How did the E-selectin level ([1]; 10 μM) turn out when `C=C(CC)C(=O)c1ccc(OCC(=O)O)c(Cl)c1Cl` [ethacrynic acid] was run?
Answer: inhibition

Question: What about the HLA-DR level ([1]; 10 μM) of the same molecule?
Answer: inhibition

Question: What about the PBMC proliferation ([1]; 10 μM) of the same molecule?
Answer: inhibition

Question: And the T cell activation ([1]; 10 μM)?
Answer: inhibition

Question: And the VCAM level ([1]; 10 μM)?
Answer: inhibition

Question: And the monocyte activation ([1]; 10 μM)?
Answer: inhibition

Question: For `COC[C@H]1OC(=O)c2coc3c2[C@@]1(C)C1=C(C3=O)[C@@H]2CCC(=O)[C@@]2(C)C[C@H]1OC(C)=O` [Wortmannin], which cytotoxicity [1] is on record?
Answer: not cytotoxic

Question: Which IL1 level [2] does the source give for `CO/C(=C/C(N)=O)[C@H](C)[C@H](/C=C/c1csc(-c2csc([C@@H](C)/C=C/C=C/C(C)C)n2)n1)OC` [Myxothiazol] here?
Answer: upregulation

Question: What about the MCP1 level [2] of the same molecule?
Answer: inhibition

Question: What about the T cell activation [2] of the same molecule?
Answer: inhibition

Question: And the VCAM level [2]?
Answer: upregulation

Question: And the proliferation [2]?
Answer: inhibition
